Calls of active or inactive are those of the source.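 Rule for the calls: active = compounds whose fitted half-maximal concentration in the cell-protection dose series is at or below a set limit; inactive = the rest.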
test system: H9c2 cardiomyocytes, 2-deoxyglucose stress, ATP luminescence, 2 h; test: H9c2 cell survival under 2-deoxyglucose stress – uHTS hits, dose response (AID 588780)

**Q.** For `COc1ccc(-n2c(C)c(C(C)=O)c3cc(OC(C)=O)ccc32)cc1`, which IC50 is on record?
**A.** 25.2 µM

**Q.** With `Cc1ccc(-c2csc(NC(=O)Cn3[nH]c(=O)c4ccccc4c3=O)n2)cc1` as the compound, how does the IC50 read?
**A.** 13.8 µM

**Q.** For `CC(=O)Oc1ccc2c(C)cc(=O)oc2c1`, which IC50 is on record?
**A.** > 79 µM (inactive)

**Q.** `COc1ccc(N(CC(=O)Nc2ccc3c(c2)OCO3)S(=O)(=O)c2ccccc2)c(OC)c1` was tested. Which IC50 did it give?
**A.** 15.4 µM

**Q.** How did the IC50 turn out when `CCc1ccc(C(C)NC(=O)c2cc(C)oc2C)cc1` (centres undefined) was run?
**A.** > 79 µM (inactive)

**Q.** How did the IC50 turn out when `CC1Cc2ccccc2C(=O)N1` (centres undefined) was run?
**A.** > 79 µM (inactive)

**Q.** For `Cn1c(=O)c2c(nc(NCCCO)n2C/C=C/c2ccccc2)n(C)c1=O`, which IC50 is on record?
**A.** > 79 µM (inactive)

**Q.** `O=C1N[C@H](Cc2ccccc2)COC(=O)[C@@H](Cc2ccc(F)cc2)C/C=C\C[C@H]1CC(=O)N(CCO)Cc1ccccc1` was tested. Which IC50 did it give?
**A.** 20.5 µM

**Q.** `CN(CC(=O)Nc1cccc(F)c1)C(=O)Cc1n[nH]c(=O)c2ccccc12` was tested. Which IC50 did it give?
**A.** > 79 µM (inactive)

**Q.** `C=CCOC(=O)C1=C[C@H](c2cn(C(C)=O)c3ccccc23)C[C@H](OCc2ccc(CO)cc2)O1` was tested. Which IC50 did it give?
**A.** 17.9 µM

**Q.** For `CC(C)CC(C(=O)NC1CCCCC1)N(Cc1cccs1)C(=O)c1snc(C(N)=O)c1N` (centres undefined), which IC50 is on record?
**A.** 30.1 µM (inactive)

**Q.** With `COc1cc(/C=N/NC(=O)c2ccncc2)ccc1OCC(=O)Nc1ccc(C)c(C)c1` as the compound, how does the IC50 read?
**A.** > 79 µM (inactive)

**Q.** For `O=C(OCc1nnc(-c2ccccc2)o1)c1ccc([N+](=O)[O-])s1`, which IC50 is on record?
**A.** 24.8 µM

**Q.** How did the IC50 turn out when `O=C(CCc1nc2ccccc2c(=O)[nH]1)OCC(=O)N1CCc2ccccc21` was run?
**A.** > 79 µM (inactive)

**Q.** `CCN(CC)CCn1c2c(c(SCC(=O)Nc3cccc(C(C)=O)c3)nc1=O)CCCC2` was tested. Which IC50 did it give?
**A.** 13.1 µM

**Q.** With `Cc1ccc(C(C)C)c(OCC(=O)NNC(=O)Cn2[nH]c(=O)c3ccccc3c2=O)c1` as the compound, how does the IC50 read?
**A.** 75.1 µM (inactive)

**Q.** Which IC50 does the source give for `CN(C)C(=O)/C=C\c1cn(-c2ccccc2)nc1-c1ccc2c(c1)OCCO2` here?
**A.** > 79 µM (inactive)

**Q.** Which IC50 does the source give for `COc1c(O)cccc1/C=N/NC(=O)Cn1ccnc1C` here?
**A.** > 79 µM (inactive)

**Q.** `COc1ccc(Cl)cc1NC(=O)CCS(=O)(=O)c1cc2c(cc1C)NC(=O)CO2` was tested. Which IC50 did it give?
**A.** 21.5 µM

**Q.** How did the IC50 turn out when `Cc1cc(C)c(C(=O)CC(=O)c2ccccc2Cl)c(O)c1` was run?
**A.** > 79 µM (inactive)

**Q.** With `CC(=O)Nc1cc(-c2cccc(NS(C)(=O)=O)c2)cn2c(-c3cccc(C(C)=O)c3)cnc12` as the compound, how does the IC50 read?
**A.** > 79 µM (inactive)

**Q.** `COc1cc(-c2cnc3c(NC=O)cc(-c4cccnc4)cn23)cc(OC)c1OC` was tested. Which IC50 did it give?
**A.** 30 µM

**Q.** With `Cn1c(=O)c2c(nc(Br)n2Cc2ccc3ccccc3c2)n(C)c1=O` as the compound, how does the IC50 read?
**A.** > 79 µM (inactive)

**Q.** With `NC(=O)c1cccc(Nc2nc(C(N)COCc3ccccc3)cs2)n1` (centres undefined) as the compound, how does the IC50 read?
**A.** > 79 µM (inactive)

**Q.** Which IC50 does the source give for `CC(C)=NNc1cnnc2ccc([N+](=O)[O-])cc12` here?
**A.** 12.2 µM

**Q.** How did the IC50 turn out when `O=C(Nc1cccc(NC(=O)c2ccc([N+](=O)[O-])o2)c1)c1ccco1` was run?
**A.** > 79 µM (inactive)

**Q.** Which IC50 does the source give for `c1coc(-c2nnc3sc(-c4cccs4)nn23)c1` here?
**A.** > 79 µM (inactive)

**Q.** How did the IC50 turn out when `COc1cccc(C(=O)Nc2c(C(N)=O)oc3ccccc23)c1` was run?
**A.** > 79 µM (inactive)

**Q.** With `CC(=O)Nc1cc(-c2ccc(C(=O)NC3CC3)cc2)cn2c(-c3cccc(C(C)=O)c3)cnc12` as the compound, how does the IC50 read?
**A.** > 79 µM (inactive)

**Q.** How did the IC50 turn out when `Cc1nc(N2CCN(c3ccccn3)CC2)c2c(C)c(C(=O)Nc3ccc(F)cc3)sc2n1` was run?
**A.** > 79 µM (inactive)

**Q.** With `COc1cc(-c2nnc(-c3cc(-c4ccccc4)nc4ccccc34)o2)cc(OC)c1OC` as the compound, how does the IC50 read?
**A.** 5.22 µM

**Q.** How did the IC50 turn out when `NC(=O)c1ccccc1OCC(=O)Nc1cccnc1Cl` was run?
**A.** > 79 µM (inactive)

**Q.** Which IC50 does the source give for `CCOC(=O)C1CCN(c2cc3c(cc2NC(=O)c2ccc(F)cc2)n(C)c(=O)n3C)CC1` here?
**A.** 21.2 µM

**Q.** Which IC50 does the source give for `COc1cc(-c2ccc3oc(-c4ccsc4)cc(=O)c3c2)cc(OC)c1OC` here?
**A.** > 79 µM (inactive)

**Q.** How did the IC50 turn out when `CC(C)(C)OC(=O)CNC(=O)c1[nH]cnc1C(=O)Nc1ccc(CNC(=O)OC(C)(C)C)cc1` was run?
**A.** > 79 µM (inactive)

**Q.** `NC(=O)c1ccc(NC(=O)COc2cccc3c2CCNC3=O)cc1` was tested. Which IC50 did it give?
**A.** > 79 µM (inactive)

**Q.** How did the IC50 turn out when `CC(=O)OCc1nc2sc(C)c(C)c2c(=O)[nH]1` was run?
**A.** > 79 µM (inactive)

**Q.** For `COc1cc(C(=O)Nc2ccc(NC(=O)c3ccco3)nc2)cc(OC)c1OC`, which IC50 is on record?
**A.** 53.5 µM (inactive)

**Q.** How did the IC50 turn out when `CCCC(=O)Nc1nc2ccc(NC(=O)c3ccc(Br)o3)cc2s1` was run?
**A.** > 79 µM (inactive)

**Q.** `COc1ccc(/C=N/NC(=O)c2cc(-c3ccc4c(c3)OCO4)n[nH]2)cc1OC` was tested. Which IC50 did it give?
**A.** > 79 µM (inactive)

**Q.** `COc1ccc(NC(=O)CCc2nc3ccccc3c(=O)[nH]2)cc1S(=O)(=O)N1CCCCC1` was tested. Which IC50 did it give?
**A.** > 79 µM (inactive)

**Q.** For `CCOc1ccc(CC(=O)Nc2c(C(N)=O)oc3ccc(Br)cc23)cc1OCC`, which IC50 is on record?
**A.** > 79 µM (inactive)

**Q.** `Cc1ccc(CN(C)C(=O)COC(=O)CSc2ccc(C(N)=O)cc2[N+](=O)[O-])cc1` was tested. Which IC50 did it give?
**A.** 31.3 µM (inactive)

**Q.** `CCC(Oc1ccccc1)C(=O)Nc1ccccc1C(=O)N1CCCCC1` (centres undefined) was tested. Which IC50 did it give?
**A.** 25.3 µM

**Q.** How did the IC50 turn out when `CS(=O)(=O)Nc1ccc(-c2ccc3nccn3c2)cc1` was run?
**A.** > 79 µM (inactive)

**Q.** How did the IC50 turn out when `O=C(CCc1nc2ccccc2c(=O)[nH]1)N1CCN(S(=O)(=O)c2cccc([N+](=O)[O-])c2)CC1` was run?
**A.** > 79 µM (inactive)

**Q.** `C=CCOc1ccc(C=Nc2ccc(OC)cc2)c(O)c1` was tested. Which IC50 did it give?
**A.** 23.8 µM

**Q.** With `O=C(CCCSc1nc2sc3c(c2c(=O)[nH]1)CCC3)NCCCO` as the compound, how does the IC50 read?
**A.** > 79 µM (inactive)

**Q.** With `COc1cccc(/C=N/NC(=O)c2nc(-c3ccccc3)cc(-c3ccccc3)n2)c1` as the compound, how does the IC50 read?
**A.** > 79 µM (inactive)

**Q.** For `Oc1ccc(Br)cc1C=Nc1ccc2c3c(cccc13)CC2`, which IC50 is on record?
**A.** 59.1 µM (inactive)

**Q.** Which IC50 does the source give for `O=S(=O)(c1ccc(Cl)cc1)c1cc(O)ccc1O` here?
**A.** > 79 µM (inactive)

**Q.** `Cc1ccc(C(=O)OCC(=O)Nc2sccc2C(N)=O)cc1NC(=O)c1ccco1` was tested. Which IC50 did it give?
**A.** > 79 µM (inactive)

**Q.** Which IC50 does the source give for `Cc1ccc(-c2n[nH]c(=O)c3ccccc23)cc1N` here?
**A.** 17.5 µM

**Q.** Which IC50 does the source give for `COc1ccc(CCn2c(Br)nc3c2c(=O)[nH]c(=O)n3C)cc1` here?
**A.** > 79 µM (inactive)

**Q.** How did the IC50 turn out when `COc1ccc(OC)c(/C=N/Nc2nncn2/N=C/c2cc(OC)ccc2OC)c1` was run?
**A.** > 79 µM (inactive)

**Q.** `CCN(C[C@H]1N[C@@](C)(C(=O)OC)[C@H]2C(=O)N(Cc3ccccc3)C(=O)[C@@H]12)C(=O)c1ccc(C(C)(C)C)cc1` was tested. Which IC50 did it give?
**A.** > 79 µM (inactive)

**Q.** `COc1ccc(NC(=O)c2cc(-c3ccc(OC)c(OC)c3)nc3ccccc23)c(OC)c1` was tested. Which IC50 did it give?
**A.** > 79 µM (inactive)

**Q.** With `O=C(OCC(=O)N1CCc2ccccc21)c1n[nH]c(=O)c2ccccc12` as the compound, how does the IC50 read?
**A.** > 79 µM (inactive)

**Q.** For `COc1cc(-c2cc3nc(NCCc4ccc(S(N)(=O)=O)cc4)ccn3n2)cc(OC)c1OC`, which IC50 is on record?
**A.** 15.8 µM

**Q.** For `O=C(N/N=C/c1cccc2cccnc12)[C@H]1C[C@@H]1c1ccccc1`, which IC50 is on record?
**A.** 29.2 µM

**Q.** How did the IC50 turn out when `O=c1cc(COc2ncnc3c(Cl)cc(Cl)cc23)nc2sccn12` was run?
**A.** > 79 µM (inactive)

**Q.** For `CCOC(=O)c1c(C)[nH]c(O)c1C=Nc1ccc(Cl)cc1`, which IC50 is on record?
**A.** > 79 µM (inactive)

**Q.** How did the IC50 turn out when `COC(=O)c1ccc(C(C(=O)NCc2ccccc2)N(Cc2cccs2)C(=O)c2cnccn2)cc1` (centres undefined) was run?
**A.** 14.7 µM

**Q.** How did the IC50 turn out when `O=C(COC(=O)CCc1nc2ccccc2c(=O)[nH]1)Nc1c(Cl)cccc1C(F)(F)F` was run?
**A.** > 79 µM (inactive)

**Q.** With `Cc1ccc(OCCOC(=O)CCc2nc3ccccc3c(=O)[nH]2)cc1` as the compound, how does the IC50 read?
**A.** > 79 µM (inactive)

**Q.** Which IC50 does the source give for `NC(=O)c1ccsc1NC(=O)COC(=O)Cc1n[nH]c(=O)c2ccccc12` here?
**A.** > 79 µM (inactive)

**Q.** `O=C(Cc1n[nH]c(=O)c2ccccc12)NCc1ccccn1` was tested. Which IC50 did it give?
**A.** > 79 µM (inactive)

**Q.** With `Cc1cc2ccccc2c(=O)[nH]1` as the compound, how does the IC50 read?
**A.** 7.23 µM

**Q.** With `CC(C)(C)OC(=O)NCC12C=CC(O1)C1C(=O)N(Cc3ccccc3)C(=O)C12` (centres undefined) as the compound, how does the IC50 read?
**A.** > 79 µM (inactive)

— PubChem BioAssay AID588780 (Sanford-Burnham Center for Chemical Genomics, 2011)
